Experimental data as given in patent publication US20250099455A1, “TREATMENT FOR CONGESTIVE HEART FAILURE” (FibroGen, Inc., priority 2022, published 2025).
“Also recorded” adds a separate entry of the source.

Tests used:
[1] = tested on: congestive heart failure subsequent to myocardial infarction; experiment: Rat CHF subsequent to myocardial infarction, daily dosing (Example 4); format: in vivo
Method: A similar experiment was carried out in which rats were dosed more frequently with a lower dose. Animals were dosed orally every day with vehicle, 2 mg/kg, 6 mg/kg or 20 mg/kg compound from day 2 to day 26 post MI. […] The effect of the compound of Formula I on cardiac function in congestive heart failure (CHF) was studied by inducing CHF subsequent to myocardial infarction (MI). Four groups of rats (n=12) were subjected to MI by 30 minute ligation of the left coronary artery followed by reperfusion. In a sham group, rats underwent a similar surgical procedure except that the left coronary artery was not occluded. Treatment with the compound of Formula I was initiated 2 days after reperfusion. In the MI groups, rats were dosed orally daily with vehicle, 2 mg/kg, 6 mg/kg or 20 mg/kg compound from day 2 to day 26 post MI. In the sham group, rats were dosed with vehicle on the same schedule. At 28 days post-MI, cardiac function, heart weight, and complete blood count (CBC) were measured. • Male Sprague Dawley rats • Ligation of left coronary artery for 30 minutes followed by reperfusion • Post-ligation recovery for 28 days • Cardiac function 28 days after ischemia-reperfusion using a Millar pressure-volume catheter inserted in the left ventricle via the carotid artery • Record pressure-volume loops over several cardiac cycles and derived cardiac function parameters

[2] = Preliminary PK profile in dogs; format: in vivo, dog
Text: The preliminary PK profile of the compound of Formula I in dogs was studied and the results are shown in FIG. 19 and summarized in the following Table.

PHD1 = PHD1 (Homo sapiens (Human), UniProt Q96KS0); experiment: HIF-PH assay (14CO2 capture), PHD1; format: biochemical
Text: The selectivity profile for the compound of Formula I can be determined using, for example, any assay familiar and commonly accessible to those skilled in the art, e.g., the following HIF-PH assay.
Ketoglutaric acid α-[1-^14C]-sodium salt, alpha-ketoglutaric acid sodium salt, and HPLC purified peptide may be obtained from commercial sources, e.g., Perkin-Elmer (Wellesley MA), Sigma-Aldrich, and SynPep Corp. (Dublin CA), respectively. Peptides for use in the assay may be fragments of HIFα as described above or as disclosed in International Publication WO 2005/118836, incorporated by reference herein. HIF-PH, e.g., PHD1 (EGLN2) or PHD2 (EGLN1), can be expressed in, e.g., insect Hi5 cells, and partially purified, e.g., through a SP ion exchange chromatography column. Enzyme activity is determined by capturing ^14CO2 using an assay described by Kivirikko and Myllyla (1982, Methods Enzymol. 82:245-304). Assay reactions contain 50 mM HEPES (pH 7.4), 100 μM α-ketoglutaric acid sodium salt, 0.30 μCi/mL ketoglutaric acid α-[1-^14C]-sodium salt, 40 μM FeSO4, 1 mM ascorbate, 1541.8 units/mL Catalase, with or without 50 µM peptide substrate and various concentrations of compound of the invention. Reactions are initiated by addition of HIF-PH enzyme. IC50 (compound concentration for 50% inhibition of enzyme activity) of the compounds for each enzyme can be determined.
The peptide-dependent percent turnover is calculated by subtracting percent turnover in the absence of peptide from percent turnover in the presence of substrate peptide. Percent inhibition and IC50 are calculated using peptide-dependent percent turnover at given inhibitor concentrations. Calculation of IC50 values for each inhibitor is conducted using GraFit software (Erithacus Software Ltd., Surrey UK). IC50 of test compound for PHD1 and for PHD2 and/or PHD3 can be readily determined using the above method, and used to assess the selectivity of the compound for inhibition of PHD1.

[3] = tested on: congestive heart failure following myocardial ischemia; experiment: Acute myocardial ischemia induced HF, dose response / MED; format: in vivo, rat
Method: • Male Sprague Dawley rats • Ligation of left coronary artery for 30 minutes followed by reperfusion • Post-ligation recovery for 28 days • Cardiac function 28 days after ischemia-reperfusion using a Millar pressure-volume catheter inserted in the left ventricle via the carotid artery • Record pressure-volume loops over several cardiac cycles and derived cardiac function parameters Dose response with the compound of Formula I on cardiac function in congestive heart failure (CHF) was studied by inducing CHF following myocardial ischemia for the determination of Minimum Effective Dose (MED) 2 mg/kg, as shown in FIGS. 10A and 10B.

PK profile in rats = format: in vivo, rat
[4] = 2, 6 or 20 mg/kg oral daily day 2-26 post MI, 28 days post-MI
[5] = 2, 6 or 20 mg/kg oral daily day 2-26 post MI, 28 days post-MI, vs vehicle
[6] = dog, in vivo, dogs, preliminary
[7] = 0.2, 0.6, 2 mg/kg daily, 4 weeks, effect at 2 mg/kg

Sequence of PHD1 (Q96KS0 whole entry, species assumed): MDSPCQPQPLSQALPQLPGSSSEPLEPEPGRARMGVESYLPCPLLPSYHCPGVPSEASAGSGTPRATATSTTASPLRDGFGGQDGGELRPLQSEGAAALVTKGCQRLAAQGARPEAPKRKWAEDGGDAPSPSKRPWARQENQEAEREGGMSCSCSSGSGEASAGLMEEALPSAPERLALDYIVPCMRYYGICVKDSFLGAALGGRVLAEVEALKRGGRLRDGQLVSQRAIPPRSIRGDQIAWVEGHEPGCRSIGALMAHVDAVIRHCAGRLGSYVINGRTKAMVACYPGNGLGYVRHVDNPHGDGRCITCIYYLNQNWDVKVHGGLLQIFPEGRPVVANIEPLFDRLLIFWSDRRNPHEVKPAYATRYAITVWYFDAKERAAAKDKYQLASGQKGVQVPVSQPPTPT

- Sex difference in PK ([2]; dog): No
- Dose proportional ([2]; dog, 10-60 mg/kg): Yes
- CL ([2]; dog, PK summary table): 4.2 ± 0.683 mL/min/kg
- half-life ([2]; dog, in vivo, PK summary table): 11 ± 2 h
- bioavailability ([2]; dog, in vivo, po, dogs, read-out: Oral bioavailability (Oral % F)): ~25%
- AUC(0-inf) [2, 6]: 10.2 ± 3.3 µg·h/mL
- AUC(0-t) [2, 6]: 10.2 ± 3.3 µg·h/mL
- Cmax [2, 6]: 2600 ± 1900 ng/mL
- Tmax [2, 6]: 0.8 ± 0.4 h
- clearance [2, 6]: 4.2 mL/min/kg
- half-life [2, 6]: 11.3 ± 1.8 h
- Vd ([2]; dog, in vivo, dogs, preliminary, read-out: Vss): 0.249 ± 0.073 L/kg
- Dose proportional ([2]; dog, up to 150 mg/kg): less than dose
- Accumulation (after multiple dosing) ([2]; dog, no data, expected based on T1/2): some acc based
- Vss relative to plasma volume ([2]; dogs): higher than plasma volume
- Clearance in dogs relative to CL in rats ([2]; dogs vs rats): 5-10 ×
- Tmax ([2]; in vivo, oral, dog, PK summary table): ~1 h
- IC50 (PHD1; Table 1): 0.91 µM
- IC50 (PHD1; additional experiment, Table 1A): 0.7 µM
- PHD2/PHD1 (PHD1; ratio IC50 PHD2/IC50 PHD1, additional experiment, Table 1A): 24
- Tmax (PK profile in rats; in vivo, oral, rat, PK summary table): 5 to 6 h
- Sex difference in PK (PK profile in rats; rat): No
- Accumulation (after multiple dosing) (PK profile in rats; rat, 4 wk GLP TK): Yes (4 wk
- Dose proportional (PK profile in rats; rat, 10-150 mg/kg): Yes
- clearance (PK profile in rats; rat, in vivo, PK summary table): 0.367 to 0.667 mL/min/kg
- half-life (PK profile in rats; rat, in vivo, PK summary table, mostly): 5 to 6 h
- half-life (PK profile in rats; rat, in vivo, PK summary table, some longer): 10 to 15 h
- bioavailability (PK profile in rats; rat, in vivo, po, rats, read-out: Oral bioavailability (Oral % F)): ~78%
- AUC(0-inf) (PK profile in rats; rat, in vivo, rats): 1080 ± 328 µg·h/mL
- AUC(0-t) (PK profile in rats; rat, in vivo, rats): 1010 ± 268 µg·h/mL
- Cmax (PK profile in rats; rat, in vivo, rats): 91000 ± 12000 ng/mL
- Tmax (PK profile in rats; rat, in vivo, rats): 6.7 ± 1.2 h
- clearance (PK profile in rats; rat, in vivo, rats): 0.367 mL/min/kg
- half-life (PK profile in rats; rat, in vivo, rats): 5 ± 1.3 h
- Vd (PK profile in rats; rat, in vivo, rats, read-out: Vss): 0.123 ± 0.056 L/kg
- Accumulation (after multiple dosing) (PK profile in rats; rat, once daily dosing 2 weeks): Unclear
- CL relative to hepatic blood flow rate (PK profile in rats; rats): lower than hepatic blow flow rate
- Vss relative to plasma volume (PK profile in rats; rats): higher than plasma volume
SMILES: CC(C)(CC(=O)O)NC(=O)c1nc(C#N)c2cc(Oc3ccccc3)ccc2c1O [Formula I, 3-[(1-cyano-4-hydroxy-7-phenoxy-isoquinoline-3-carbonyl)-amino]-3-methyl-butyric acid]
- collagen deposition ([1]; 2, 6, 20 mg/kg daily, 4 weeks): Significant reduction in cardiac
- diastolic function ([1]; 2, 6, 20 mg/kg daily, 4 weeks): deposition, improvement in systolic
- systolic function ([1]; 2, 6, 20 mg/kg daily, 4 weeks): deposition, improvement in systolic
- circulating hemoglobin level [1, 4]: did not produce a concomitant significant increase; also recorded: without any concomitant rise
- other CBC parameters [1, 4]: did not produce a concomitant significant increase in circulating hemoglobin level or have a significant effect
- arterial elastance [1, 5]: significantly improved
- cardiac hypertrophy [1, 5]: significantly improved; also recorded: significant improvement; also recorded: Significant reduction in cardiac
- cardiac output [1, 5]: significantly improved; also recorded: significant improvement
- dPdtmax [1, 5]: significantly improved
- ejection fraction [1, 5]: significantly improved; also recorded: significant improvement; also recorded: fraction improved at all doses)
- end systolic volume [1, 5]: significantly improved; also recorded: significant improvement
- end-diastolic pressure [1, 5]: significantly improved
- relaxation time [1, 5]: significantly improved; also recorded: significant improvement
- stroke volume [1, 5]: significantly improved; also recorded: significant improvement
- stroke work [1, 5]: significantly improved; also recorded: significant improvement
- effectiveness of a lower dose at more frequent intervals vs a higher dose at less frequent intervals ([1]; daily 2, 6, 20 mg/kg vs every other day dosing): equally effective
- cardiac contractility ([1]; daily for 28 days): significant improvement
- cardiac hypertrophy [3, 7]: Significant reduction in cardiac
- diastolic function [3, 7]: hypertrophy and improved systolic
- systolic function [3, 7]: hypertrophy and improved systolic
- Minimum Effective Dose (MED) ([3]; cardiac function in CHF following myocardial ischemia): 2 mg/kg
